Source: patent publication US20250034520A1, “INCREASING DEVELOPMENTAL POTENTIAL OF HUMAN PREIMPLANTATION EMBRYOS BY REDUCING GENETIC INSTABILITY, ANEUPLOIDIES AND CHROMOSOMAL MOSAICISM” (THE TRUSTEES OF COLUMBIA UNIVERSITY IN THE CITY OF NEW YORK, priority 2022, published 2025)
“Also recorded” adds a separate entry of the source.

Key:
Type in all cases: cell-based
mouse zygotes = test: DNA damage foci immunostaining in mouse zygotes/embryos
Experimental: (§1) Embryos, mouse and human, were cultured in Global Total (Life-Global) for the duration of the experiments and with added compounds as outlined below. Incubation in RNA polymerase inhibitors triptolide (1 mM) or alpha amanitin (20 mg/ml) was performed from the 2PN stage (day1) to day3 of human development. Incubation in aphidicolin was performed at 2 mM. […] Mirin was used at a concentration of 50 mM. Olaparib was used to inhibit PARP at a concentration of 10 mM. All experiments were conducted during incubation at 37° C. with 5% CO2 and 19-20% O2. Chemical stock solutions were prepared in DMSO at concentrations at least 1000× higher than the final concentration.
(§2) Mouse oocytes were activated at 1-6 hours post retrieval using 2 mM ionomycin (Sigma Aldrich) in Global Total medium for 5 minutes at 37° C. followed by culture in 10 mM puromycin and 5 mg/ml cytochalasin B for 3 hours, then cytochalasinB only for 2 hours and 10 minutes to prevent second polar body extrusion.
(§3) Following the experimental exposures, mouse and human embryos were fixed in 2% paraformaldehyde (PFA) and 0.25% Triton X-100 in PBS for 10 minutes at room temperature, serially washed in phosphate-buffered solution (PBS) at room temperature, then stored in PBS at 4° C. until staining and imaging. Embryos were placed in 10-20 ml droplets of primary antibody solution within plastic tissue culture dishes covered with mineral oil for 1 hour at room temperature, serially washed (×2) in PBS containing 0.01% Triton X-100 to prevent embryos sticking to oil, then transferred to 10-20 ml secondary antibody solution and Hoechst (dilution 1:500) for 30 minutes. Embryos were then serially washed (×2) and placed in 5 ml droplets of PBS with 0.5% serum albumin in uncoated glass bottom dishes (Mattek) covered with embryo culture oil for imaging. The following primary antibodies were used across experiments as described above: Oct-4, γH2AX, RPA32, RPA32 S4/S8, RPA32 S33, 53BP1, RAD51, Centromere, and phospho-CHK1. Phospho-specific antibodies were quality controlled through ATR dependence of foci formation in mouse zygotes, and for γH2AX also in human zygotes. […] The appropriate secondary antibodies conjugated with Alexa Fluor 488, Alexa Fluor 555, CF 568, or Alexa Fluor 647 were diluted at 1:500-1:1000. Ethynyl deoxyuridine (EdU) labeling of zygotes and embryos was performed using the labeling kit (Thermo Fisher Scientific) as described by the manufacturer. 10 mM EdU was added to culture medium for 1 h at the indicated time points, and cells were harvested and fixed thereafter. 5-ethynyl uridine (EU) labeling was performed by incubating day3 cleavage stage embryos for 4 hours in Global total containing 0.2 mM EU.
(§4) Embryos were imaged with confocal microscopy using a Zeiss LSM (LSM 710) at a magnification of 63× and the Zeiss Zen software. Images were obtained using 488-, 543- and 633-nm lasers and bright-field microscopy. The number of confocal sections was adjusted to capture the entire nucleus or the entire embryo according to the experimental design as described above. Cell numbers and staining foci numbers were counted manually. Nuclei were identified by the presence of Hoechst33342. Foci were identified if at least 3× greater intensity than nuclear average, spherical in appearance, and overlapping with Hoechst33342 staining. Inner cell masses were identified by the presence of Oct4 within a blastocyst embryo. Active DNA replication was identified by the presence of EdU. DNA damage was identified by the detection of γH2AX and RPA foci within the nucleus. Mechanisms of DNA repair were identified through the detection of RPA S4/S8, RPA S33, Rad51 and 53BP1 foci within the nucleus.

[1] = test system: mouse parthenogenetic zygotes; test: anaphase figures at the first mitosis, mouse parthenogenetic zygotes
Experimental: as §1, §2, §3

[2] = test system: human zygotes and parthenotes; test: timing of mitotic entry in human zygotes and parthenotes; conditions: for mitotic entry: human parthenotes
Experimental: as §1
Artificial activation of human MII oocytes was performed using two pulses of 2.7 kV/cm at 50 ms using ECFG21 (Nepagene) in fusion buffer consisting of 0.25 M d-sorbitol buffer containing 0.1 mM calcium acetate, 0.5 mM magnesium acetate, 0.5 mM HEPES, and 1 mg ml^−1 fatty-acid-free BSA as previously described (Tachibana et al., 2013). Thereafter, oocytes were incubated for 3.5-4 h in 10 mg/ml puromycin, followed by a wash step and following culture in Global total.

mouse embryos = test: mouse preimplantation development and embryo quality
Experimental: as §1, §2, §3, §4

[3] = mice, aphidicolin incubation in G2 phase

## C[C@@]1(CO)[C@H](O)CC[C@@]2(C)[C@H]1CC[C@H]1C[C@@H]3C[C@@]12CC[C@]3(O)CO [aphidicolin]
Mouse zygotes; 4-8 cell stage, 48 h post activation
  markers of DNA damage (γH2AX, Rpa32, Rpa32 phosphoS33): increased
Mouse zygotes; G2 arrested zygotes
  time to formation of phospho-RPA32, γH2AX and Rad51 foci after fork stalling: 2 to 4 h
  time to resolution of foci after release from the compound: 1 to 2 h
Mouse zygotes; mice, aphidicolin incubation
  RPA32-positive foci per haploid nucleus, average: 4.5 per haploid nucleus
  γH2AX foci positive for RPA32: Approximately 10%
Mouse zygotes; [3]
  mean γH2AX foci: 43
  γH2AX foci, range: 0-228
[1]; aphidicolin in G2 phase
  embryos with abnormal anaphase, range per experiment: 7%-30%
[1]; aphidicolin in G2 phase, controls 191/191 normal
  embryos with abnormal anaphase: 17.4%
[1]; applied only after pronuclear envelope breakdown
  effect on chromosome segregation at anaphase: inconsequential
[1]; both ATR kinase inhibitor and aphidicolin in G2 phase
  frequency of abnormal anaphase figures: 63%
[2]; incubation at 14 h
  mitotic entry: prevented mitotic entry
[2]; incubation at 15.5 h, compared with controls
  mitotic entry: allowed mitotic entry with a delay
[2]; human, incubation at 18 h
  mitotic entry timing: no effects; also recorded: did not delay
Mouse embryos; 48 h post activation, aphidicolin in G2
  micronucleation: increased
Mouse embryos; aphidicolin in G2 phase
  cleaved embryos developed to the blastocyst stage, range: 25%-87%
Mouse embryos; aphidicolin in G2 phase, controls 92%
  cleaved embryos developed to the blastocyst stage: 72%
Mouse embryos; day 5, aphidicolin in G2
  ICM cells marked by Pou5f1: fewer
  total cell number of blastocysts: reduced
